Assay results as given in patent US7951920B2, “Conjugate of an antibody against CCR5 and an antifusogenic peptide” (Roche Palo Alto LLC, priority 2006, dated 2011).

Key:
[1] = test system: pseudotyped NL-Bal viruses; format: cell-based, HIV; settings: pseudotyped NL-Bal virus, JC53-BL cells, 3 day incubation, inhibition of luciferase activity
Protocol: For the production of pseudotyped NL-Bal viruses, plasmid pNL4-3Δenv (HIV pNL4-3 genomic construct with a deletion within the env gene) and pcDNA3.1/NL-BAL env [pcDNA3.1 plasmid containing NL-Bal env gene (obtained from NIBSC Centralized Facility for AIDS Reagents)] were co-transfected into the HEK 293FT cell line (Invitrogen), cultured in Dulbecco's modified […] (DMEM) containing 10% fetal calf serum (FCS), 100 U/mL Penicillin, 100 μg/mL Streptomycin, 2 mM L-glutamine and 0.5 mg/mL geniticin (all media from Invitrogen/Gibco). The supernatants containing pseudotyped viruses were harvested two days following transfection, and cellular debris was removed by filtration through a 0.45 μm pore size PES (polyethersulfone) filter (Nalgene) and stored at −80° C. in aliquots. For normalization in assay performance, virus stock aliquots were used to infect JC53-BL (US NIH Aids Reagent Program) cells yielding approximately 1.5×10^5 RLU (relative light units) per well. Test antifusogenic peptide-anti-CCR5 antibody conjugates, reference antibodies and reference antifusogenic peptides (T-20, T-1249, T-651 and T-2635) were serially diluted in 96-well plates. The assay was carried out in quadruplicates. Each plate contained cell control and virus control wells. The equivalent of 1.5×10^5 RLU of virus stocks were added to each well, then 2.5×10^4 JC53-BL cells were added to each well, with a final assay volume of 200 μl per well. After 3 day incubation at 37° C., 90% Relative Humidity, and 5% CO2, media were aspirated and 50 μl of Steady-Glo® Luciferase Assay System (Promega) was added to each well. The assay plates were read on a Luminometer (Luminoskan, Thermo Electron Corporation) after 10 minutes of incubation at room temperature. Percent inhibition of luciferase activity was calculated for each dose point after subtracting the background, and IC50 and IC90-values were determined by using XLfit curve fitting software for Excel (version 3.0.5 Build12; […]).

[2] = test system: HIV; experiment: HIV assays; format: cell-based; settings: comparison with antibody 2D7
[3] = test system: CCR5 mutant K171A or E172A; experiment: Epitope binding by alanine scanning (epitope mapping); design: species or system human; settings: 100% epitope binding is defined for wild-type CCR5
From the text: Epitope binding is investigated by using alanine scanning according to the method described by W. C. Olson et al. (J. Virol. (1999) 73:4145-55) for epitope mapping. […] Epitope binding for antibody C is found to be 20% for CCR5 mutant K171A or E172A (glu 172 is mutated to ala). 100% epitope binding is defined for wild-type CCR5. A further preferred anti-CCR5 antibody binds to the same epitope as antibody C binds.

Molecule | Antiviral activity IC50 [1] [µg/mL] | Antiviral activity IC90 [1] [µg/mL] | IC50 values compared with antibody 2D7 [2] | Epitope binding [3] [%]
CC[C@H](C)[C@H](NC(=O)[C@H](CCC(N)=O)NC(=O)[C@H](C)NC(=O)[C@H](CCC(N)=O)NC(=O)[C@H](CCC(=O)O)NC(=O)[C@H](CC(C)C)NC(=O)[C@H](CC(C)C)NC(=O)[C@H](C)NC(=O)[C@@H](NC(=O)[C@@H](NC(=O)[C@H](CCCCN)NC(=O)[C@H](CCC(N)=O)NC(=O)[C@H](CCC(=O)O)NC(=O)[C@H](Cc1c[nH]c2ccccc12)NC(=O)[C@H](CCC(=O)O)NC(=O)[C@H](CCC(N)=O)NC(=O)[C@H](Cc1c[nH]c2ccccc12)NC(C)=O)[C@@H](C)CC)[C@@H](C)O)C(=O)N[C@@H](CCC(N)=O)C(=O)N[C@@H](CCC(N)=O)C(=O)N[C@@H](CCC(=O)O)C(=O)N[C@@H](CCCCN)C(=O)N[C@@H](CC(N)=O)C(=O)N[C@@H](CCC(=O)O)C(=O)N[C@@H](Cc1ccc(O)cc1)C(=O)N[C@@H](CCC(=O)O)C(=O)N[C@@H](CC(C)C)C(=O)N[C@@H](CCC(N)=O)C(=O)N[C@@H](CCCCN)C(=O)N[C@@H](CC(C)C)C(=O)N[C@@H](CC(=O)O)C(=O)N[C@@H](CCCCN)C(=O)N[C@@H](Cc1c[nH]c2ccccc12)C(=O)N[C@@H](C)C(=O)N[C@@H](CO)C(=O)N[C@@H](CC(C)C)C(=O)N[C@@H](Cc1c[nH]c2ccccc12)C(=O)N[C@@H](CCC(=O)O)C(=O)N[C@@H](Cc1c[nH]c2ccccc12)C(=O)N[C@@H](Cc1ccccc1)C(N)=O [T-1249] | 0.011 | 0.09 | – | –
CC[C@H](C)[C@H](NC(=O)[C@H](C)NC(=O)[C@H](CCCNC(=N)N)NC(=O)[C@H](CC(=O)O)NC(=O)[C@H](Cc1c[nH]c2ccccc12)NC(=O)[C@H](C)NC(=O)[C@H](CCC(=O)O)NC(=O)[C@H](Cc1c[nH]c2ccccc12)NC(=O)[C@@H](NC(=O)[C@@H](NC(C)=O)[C@@H](C)O)[C@@H](C)O)C(=O)N[C@@H](C)C(=O)N[C@@H](CCC(=O)O)C(=O)N[C@@H](Cc1ccc(O)cc1)C(=O)N[C@@H](C)C(=O)N[C@@H](C)C(=O)N[C@@H](CCCNC(=N)N)C(=O)N[C@H](C(=O)N[C@@H](CCC(=O)O)C(=O)N[C@@H](C)C(=O)N[C@@H](CC(C)C)C(=O)N[C@H](C(=O)N[C@@H](CCCNC(=N)N)C(=O)N[C@@H](C)C(=O)N[C@@H](C)C(=O)N[C@@H](CCC(N)=O)C(=O)N[C@@H](CCC(=O)O)C(=O)N[C@@H](CCC(N)=O)C(=O)N[C@@H](CCC(N)=O)C(=O)N[C@@H](CCC(=O)O)C(=O)N[C@@H](CCCCN)C(=O)N[C@@H](CC(N)=O)C(=O)N[C@@H](CCC(=O)O)C(=O)N[C@@H](C)C(=O)N[C@@H](C)C(=O)N[C@@H](CC(C)C)C(=O)N[C@@H](CCCNC(=N)N)C(=O)N[C@@H](CCC(=O)O)C(=O)N[C@@H](CC(C)C)C(N)=O)[C@@H](C)CC)[C@@H](C)CC [T-2635] | 0.014 | 0.161 | – | –
enfuvirtide | 0.206 | 3.955 | – | –
Antibody C: anti-CCR5 antibody, variable domains SEQ ID NO:5, 6 (antibody, V domains shown, mouse) VH: QVQLKQSGPGLVRPSQSLSITCTVSGFPLGIFGVHWVRQSPGKGLEWLGVIWKGGNTDYNAAFMSRLRITKDNSKSQVFFRMNSLQTDDTAIYYCAKVNLADAMDYWGQGTSVIVSS VL: DIQMTQSPASLSASVGETVTITCRASGNIHGYLAWFQQKQGKSPQLLVYNTKTLAEGVPSRFSGSGSGTQFSLKINSLQPEDFGNYYCQHHYDLPRTFGGGTKLEIKR | – | – | lower IC50 values than antibody 2D7 | 20
